Test results reported in patent US20060217294A1, “Compounds binding to p-selectin” (YAMANOUCHI EUROPE B.V., priority 2002, published 2006).
Where two headings read alike, the source gives them in different places. Numbered stars: 1 amine (or outer) side, 2 acyl side, 3 side chain; on linkers, the order of the positions; unused ones are H or OH. Square brackets hold non-standard residues; d marks the D form. Peptide text beside a SMILES is read from it. * marks the point of attachment. Trimesoyl = O=C(c1cc(C(=O)[*:2])cc(C(=O)[*:3])c1)[*:1]; Thiophene2carbonyl = O=C(c1cccs1)*; 1Naphthoyl = O=C(c1cccc2ccccc12)*; Galloyl = O=C(c1cc(O)c(O)c(O)c1)*; Trx = NC[C@H]1CC[C@H](C(=O)O)CC1; 4Amb = NCc1ccc(C(=O)O)cc1; 4Abz = Nc1ccc(C(=O)O)cc1; Butyryl = CCCC(=O)*; Bz = O=C(c1ccccc1)*; X1 = CN(C)CCCC(=O)*; Ahx = NCCCCCC(=O)O; GABA = NCCCC(=O)O

Tests used:
human P-selectin [1] = molecular target: T1, human P-selectin (Homo sapiens, UniProt P16109); test: Competition assay with TM11-PO (competition ELISA); type: binding
T1 construct: IgG-Fc (fusion partner); purchased R&D Systems Europe Ltd., Abingdon, United Kingdom
Procedure: Compounds according to the invention, as prepared in examples 1, 2 and 3 and some reference peptide compounds were assayed for its ability to inhibit TM11-PO binding to human P-selectin. […] For competition studies, a 96 wells microtiter plate (high binding, flat bottom, Costar, Corning, U.S.A.) was coated overnight at 4° C. with 10 μg/ml goat anti-human IgG (Fc specific) (Sigma-Aldrich, Zwijndrecht, the Netherlands) in coating buffer (50 mM NaHCO3, pH 9.6). Subsequently, wells were washed with assay buffer and incubated for 1 hour at 37° C. with blocking buffer (3% BSA in assay buffer). After washing with assay buffer, the wells were incubated for 2 hours at 37° C. with the human P-selectin IgG-Fc chimera (R&D Systems Europe Ltd., Abingdon, United Kingdom) (0.3 μg/ml). Subsequently, wells were washed with assay buffer and incubated for 1 hour at 4° C. with the TM11-PO complex. The wells were washed six times with washing buffer (0.1% Tween 20 in assay buffer). […] (TMB)/hydrogen peroxide (H2O2) (Pierce, Rochford, U.S.A.) was added and wells were incubated at room temperature for 15 minutes. The reaction was halted by addition of 2 M H2SO4 and the absorbance was measured at 450 nm.

human P-selectin [2] = molecular target: T1, human P-selectin; conditions: Table 2; values marked b, from not pre-published European patent application 01203314.8; read-out: IC50 for human P-selectin as determined by competition Elisa; cited from earlier work
P-selectin = molecular target: T2, P-selectin (Homo sapiens, UniProt P16109); conditions: described in European patent application No. 01203314.8; read-out: affinity for P-selectin, IC50; cited from earlier work
T2 sequence (P16109 42-830): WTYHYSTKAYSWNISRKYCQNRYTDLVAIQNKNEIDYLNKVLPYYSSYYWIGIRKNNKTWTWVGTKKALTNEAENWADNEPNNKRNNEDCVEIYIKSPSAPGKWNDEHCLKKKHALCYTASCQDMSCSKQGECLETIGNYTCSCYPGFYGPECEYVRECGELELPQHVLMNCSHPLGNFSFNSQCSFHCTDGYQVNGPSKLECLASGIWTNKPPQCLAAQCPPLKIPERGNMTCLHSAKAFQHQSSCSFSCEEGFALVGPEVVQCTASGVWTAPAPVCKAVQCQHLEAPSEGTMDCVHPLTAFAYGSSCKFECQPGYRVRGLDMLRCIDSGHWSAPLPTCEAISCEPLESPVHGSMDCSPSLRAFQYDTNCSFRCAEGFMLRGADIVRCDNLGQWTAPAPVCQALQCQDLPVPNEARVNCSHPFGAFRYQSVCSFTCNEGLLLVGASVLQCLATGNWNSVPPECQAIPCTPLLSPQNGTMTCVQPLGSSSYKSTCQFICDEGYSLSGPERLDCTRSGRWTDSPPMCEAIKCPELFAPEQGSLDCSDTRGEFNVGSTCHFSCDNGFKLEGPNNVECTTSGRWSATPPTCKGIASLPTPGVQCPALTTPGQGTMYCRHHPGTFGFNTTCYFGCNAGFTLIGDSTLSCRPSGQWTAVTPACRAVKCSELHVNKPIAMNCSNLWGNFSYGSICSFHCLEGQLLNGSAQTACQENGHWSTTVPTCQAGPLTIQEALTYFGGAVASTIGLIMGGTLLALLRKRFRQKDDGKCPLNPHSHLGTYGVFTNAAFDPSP

[3] = Table 1, derivatised peptides HPij, inhibition of TM11-PO binding to human P-selectin, read-out: IC50
[4] = Table 3, gallic acid derivatized peptides, mean of at least 3 experiments at 8 concentrations, read-out: IC50 for human P-selectin as determined by competition Elisa

T1 sequence (P16109 with tags, fused parts or gaps limits assumed): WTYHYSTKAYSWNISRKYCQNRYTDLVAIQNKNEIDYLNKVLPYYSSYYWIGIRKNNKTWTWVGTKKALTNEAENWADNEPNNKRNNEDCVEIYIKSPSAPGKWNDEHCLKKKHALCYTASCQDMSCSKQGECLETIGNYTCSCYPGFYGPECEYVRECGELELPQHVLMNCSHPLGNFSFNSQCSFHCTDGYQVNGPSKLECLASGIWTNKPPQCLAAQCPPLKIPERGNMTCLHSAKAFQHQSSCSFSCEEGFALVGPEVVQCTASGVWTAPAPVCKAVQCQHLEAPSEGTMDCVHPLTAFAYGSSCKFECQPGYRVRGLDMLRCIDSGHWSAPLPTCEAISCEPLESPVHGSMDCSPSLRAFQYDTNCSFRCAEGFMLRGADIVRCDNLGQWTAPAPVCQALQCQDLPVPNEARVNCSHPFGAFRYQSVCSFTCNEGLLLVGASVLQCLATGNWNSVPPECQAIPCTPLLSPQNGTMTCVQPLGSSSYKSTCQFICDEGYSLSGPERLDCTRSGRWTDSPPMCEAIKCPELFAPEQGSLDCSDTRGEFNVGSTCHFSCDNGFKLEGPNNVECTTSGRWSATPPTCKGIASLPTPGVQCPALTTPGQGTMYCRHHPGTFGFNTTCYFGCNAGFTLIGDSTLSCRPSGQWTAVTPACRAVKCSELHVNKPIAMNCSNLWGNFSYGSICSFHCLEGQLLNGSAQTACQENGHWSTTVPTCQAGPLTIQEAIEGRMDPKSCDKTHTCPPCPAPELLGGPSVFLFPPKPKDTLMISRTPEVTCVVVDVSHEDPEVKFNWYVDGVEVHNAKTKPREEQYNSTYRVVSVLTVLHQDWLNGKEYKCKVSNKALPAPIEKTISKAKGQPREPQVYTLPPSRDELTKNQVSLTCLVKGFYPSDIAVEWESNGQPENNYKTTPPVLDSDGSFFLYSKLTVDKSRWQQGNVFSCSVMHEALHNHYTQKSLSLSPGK

Row | Molecule | IC50 (human P-selectin [1]; [3]) [µM] | IC50 (human P-selectin [1]; [4]) [µM] | further results
1 | CC(C)[C@H](NC(=O)[C@H](CC(=O)O)NC(=O)[C@@H](NC(=O)[C@H](Cc1c[nH]c2ccccc12)NC(=O)[C@@H](N)CCC(=O)O)C(C)C)C(=O)N[C@@H](CCCCNC(=O)c1cc(O)c(O)c(O)c1)C(=O)NCCCC(=O)O [HP06] (H-EWVDVK(Galloyl)[GABA]-OH) | 6 | – | –
2 | CC(C)[C@H](NC(=O)[C@H](CC(=O)O)NC(=O)[C@@H](NC(=O)[C@H](Cc1c[nH]c2ccccc12)NC(=O)[C@H](CCC(=O)O)NC(=O)c1cc(C(=O)O)cc(C(=O)O)c1)C(C)C)C(=O)N[C@@H](CCCCNC(=O)c1cccc2ccccc12)C(=O)NCCCC(=O)O [HP14] (Trimesoyl-EWVDVK(1Naphthoyl)[GABA]-OH) | 1.02 | – | –
3 | CC(C)[C@H](NC(=O)[C@H](CC(=O)O)NC(=O)[C@@H](NC(=O)[C@H](Cc1c[nH]c2ccccc12)NC(=O)[C@H](CCC(=O)O)NC(=O)c1cc(C(=O)O)cc(C(=O)O)c1)C(C)C)C(=O)N[C@@H](CCCCNC(=O)c1cc(O)c(O)c(O)c1)C(=O)NCCCC(=O)O [HP16] (Trimesoyl-EWVDVK(Galloyl)[GABA]-OH) | 0.31 | – | –
4 | CC(C)[C@H](NC(=O)[C@H](CC(=O)O)NC(=O)[C@@H](NC(=O)[C@H](Cc1c[nH]c2ccccc12)NC(=O)[C@H](CCC(=O)O)NC(=O)c1cc(C(=O)O)cc(C(=O)O)c1)C(C)C)C(=O)N[C@@H](CCCCNC(=O)c1ccccc1)C(=O)NCCCC(=O)O [HP17] (Trimesoyl-EWVDVK(Bz)[GABA]-OH) | 0.45 | – | –
5 | CC(C)[C@H](NC(=O)[C@H](CC(=O)O)NC(=O)[C@@H](NC(=O)[C@H](Cc1c[nH]c2ccccc12)NC(=O)[C@H](CCC(=O)O)NC(=O)c1cc(O)c(O)c(O)c1)C(C)C)C(=O)N[C@@H](CCCCN)C(=O)NCCCC(=O)O [HP60] (Galloyl-EWVDVK[GABA]-OH) | 1.1 | – | –
6 | CC(C)[C@H](NC(=O)[C@H](CC(=O)O)NC(=O)[C@@H](NC(=O)[C@H](Cc1c[nH]c2ccccc12)NC(=O)[C@H](CCC(=O)O)NC(=O)c1cc(O)c(O)c(O)c1)C(C)C)C(=O)N[C@@H](CCCCNC(=O)c1cc(C(=O)O)cc(C(=O)O)c1)C(=O)NCCCC(=O)O [HP61] (Galloyl-EWVDVK(Trimesoyl)[GABA]-OH) | 0.19 | – | –
7 | CC(C)[C@H](NC(=O)[C@H](CC(=O)O)NC(=O)[C@@H](NC(=O)[C@H](Cc1c[nH]c2ccccc12)NC(=O)[C@H](CCC(=O)O)NC(=O)c1cc(O)c(O)c(O)c1)C(C)C)C(=O)N[C@@H](CCCCNC(=O)CCCN(C)C)C(=O)NCCCC(=O)O [HP62] (Galloyl-EWVDVK(X1)[GABA]-OH) | 0.28 | – | –
8 | CC(C)[C@H](NC(=O)[C@H](CC(=O)O)NC(=O)[C@@H](NC(=O)[C@H](Cc1c[nH]c2ccccc12)NC(=O)[C@H](CCC(=O)O)NC(=O)c1cc(O)c(O)c(O)c1)C(C)C)C(=O)N[C@@H](CCCCNC(=O)c1cccs1)C(=O)NCCCC(=O)O [HP63] (Galloyl-EWVDVK(Thiophene2carbonyl)[GABA]-OH) | 3.4 | – | –
9 | CCCC(=O)NCCCC[C@H](NC(=O)[C@@H](NC(=O)[C@H](CC(=O)O)NC(=O)[C@@H](NC(=O)[C@H](Cc1c[nH]c2ccccc12)NC(=O)[C@H](CCC(=O)O)NC(=O)c1cc(O)c(O)c(O)c1)C(C)C)C(C)C)C(=O)NCCCC(=O)O [HP65] (Galloyl-EWVDVK(Butyryl)[GABA]-OH) | 2.35 | – | –
10 | CC(C)[C@H](NC(=O)[C@H](CC(=O)O)NC(=O)[C@@H](NC(=O)[C@H](Cc1c[nH]c2ccccc12)NC(=O)c1cc(O)c(O)c(O)c1)C(C)C)C(=O)O [Peptide 12, GA-WVDV] (Galloyl-WVDV-OH) | – | 0.0371 | IC50 (human P-selectin [1]; Table 2, average of at least 3 experiments at 8 concentrations, TM11-PO competition ELISA, read-out: IC50 for human P-selectin as determined by competition Elisa): 0.037 µM
11 | CC(C)[C@H](NC(=O)[C@H](CC(=O)O)NC(=O)[C@@H](NC(=O)[C@H](Cc1c[nH]c2ccccc12)NC(=O)CNC(=O)c1cc(O)c(O)c(O)c1)C(C)C)C(=O)O [Peptide 27] (Galloyl-GWVDV-OH) | – | 0.0183 | –
12 | CC(C)[C@H](NC(=O)[C@H](CC(=O)O)NC(=O)[C@@H](NC(=O)[C@H](Cc1c[nH]c2ccccc12)NC(=O)CCCNC(=O)c1cc(O)c(O)c(O)c1)C(C)C)C(=O)O [Peptide 28] ({Galloyl-GABA}-WVDV-OH) | – | 0.0154 | –
13 | CC(C)[C@H](NC(=O)[C@H](CC(=O)O)NC(=O)[C@@H](NC(=O)[C@H](Cc1c[nH]c2ccccc12)NC(=O)CCCCCNC(=O)c1cc(O)c(O)c(O)c1)C(C)C)C(=O)O [Peptide 29] ({Galloyl-Ahx}-WVDV-OH) | – | 0.0629 | –
14 | CC(C)[C@H](NC(=O)[C@H](CC(=O)O)NC(=O)[C@@H](NC(=O)[C@H](Cc1c[nH]c2ccccc12)NC(=O)[C@@H]1CCCN1C(=O)c1cc(O)c(O)c(O)c1)C(C)C)C(=O)O [Peptide 30] (Galloyl-PWVDV-OH) | – | 0.25 | –
15 | CC(C)[C@H](NC(=O)[C@H](CC(=O)O)NC(=O)[C@@H](NC(=O)[C@H](Cc1c[nH]c2ccccc12)NC(=O)c1ccc(NC(=O)c2cc(O)c(O)c(O)c2)cc1)C(C)C)C(=O)O [Peptide 31] ({Galloyl-4Abz}-WVDV-OH) | – | > 1 | –
16 | CC(C)[C@H](NC(=O)[C@H](CC(=O)O)NC(=O)[C@@H](NC(=O)[C@H](Cc1c[nH]c2ccccc12)NC(=O)c1ccc(CNC(=O)c2cc(O)c(O)c(O)c2)cc1)C(C)C)C(=O)O [Peptide 32] ({Galloyl-4Amb}-WVDV-OH) | – | 0.59 | –
17 | CC(C)[C@H](NC(=O)[C@H](CC(=O)O)NC(=O)[C@@H](NC(=O)[C@H](Cc1c[nH]c2ccccc12)NC(=O)[C@H]1CC[C@H](CNC(=O)c2cc(O)c(O)c(O)c2)CC1)C(C)C)C(=O)O [Peptide 33] ({Galloyl-Trx}-WVDV-OH) | – | 0.58 | –
18 | AWVDV [Peptide A131] | – | – | IC50 (human P-selectin [2]): 27 µM
19 | CDVEWVDVSSLEWDLPC [TM11] | – | – | IC50 (human P-selectin [2]): 2 µM
20 | DWVDV [Peptide A129] | – | – | IC50 (human P-selectin [2]): 16 µM
21 | EWVDV [Peptide A29] | – | – | IC50 (human P-selectin [2]): 8 µM; IC50 (P-selectin): ~2 µM
22 | KWVDV [Peptide A130] | – | – | IC50 (human P-selectin [2]): 28 µM
23 | WVDV [Peptide A138] | – | – | IC50 (human P-selectin [2]): > 1000 µM
